Experimental data from US20020142982A1, “Method for regulating angiogenesis” (priority 1999, published 2002).

How the values were obtained:
HUVEC [1] = assay: SPP-induced intracellular calcium in HUVEC (Indo-1 fluorescence); format: cell-based, human; details: HUVEC stimulated with SPP
Description: Functional assays were used to test for the presence of Gi-coupled and Gq-coupled SPP receptors in HUVEC. First, intracellular calcium levels were measured in response to SPP. For these experiments, cells were grown on 100-mm tissue culture dishes and loaded with the fluorescent calcium-sensitive dye, Indo-1 acetoxymethyl ester (Indo-1/AM, 5 μg/mL; Molecular Probes, Inc., Eugene, Oreg.), for 30 min at 37° C. Cells were then washed with medium M199, briefly trypsinized (0.05% porcine trypsin/0.02% EDTA in HBSS (JRH Biosciences, Lenexa, Kans.), and the trypsin activity was immediately neutralized with soybean trypsin inhibitor (5 μg/mL, Sigma Chemical Co., St. Louis, Mo.). Following centrifugation (250 g×5 min), cells were resuspended in M199 medium to a density of 2.7×10^5 cells/mL. Cells were then stimulated with different doses of SPP. Some cells were pretreated with the Gi inhibitor pertussis toxin (PTx, 500 ng-/mL) for 16 hours. Calcium ion concentration was then quantified by measuring changes in indo-1 fluorescence in 2 mL of cell suspension by a Hitachi F-2000 fluorescence Spectrophotometer with constant stirring. Fluorescence emission was monitored at 400 and 475 nm with excitation at 352 nm. [Ca^+2]1 was calculated as described in Volpi and Berlin, J. Cell Biol., Vol. 107, 2533-39 (1988).

ERK-2 = ERK-2 immune complex kinase assay in HUVEC; format: cell-based, human; details: SPP 10-500 nM, 10 minutes, starved HUVEC
Description: As a second functional assay, ERK-2 kinase activity was measured in response to SPP treatment. For these experiments, endothelial cells were starved for 19 hours, and then stimulated with SPP for 10 minutes. Cells were then lysed, and ERK-2 kinase activity was measured by an immune complex kinase assay using myelin basic protein (MBP) as substrate. Some cells were pretreated with pertussis toxin (PTx) at 200 ng/mL, or PD98059 at 10 μM for 2 hours prior to stimulation.

HUVEC [2] = assay: HUVEC morphogenesis on MATRIGEL (in vitro angiogenesis, tubular length); format: cell-based, human; details: 12-18 hours; SPM and C1P 1 μM
Description: FIG. 42 is microscope images showing morphogenesis of HUVEC cells plated on Matrigel. HUVEC cells were transduced with 50 MOI of indicated viruses; a,b=none, c=β-gal, d=wild-type EDG-1, e=T236AEDG-1, f=T236AEDG-1+wild-type Akt. Total viral load in c-f is normalized. In vitro angiogenesis assay on Matrigel was conducted in the presence (b to f) or not (a) of 100 nM S1P. The numbers are mean±s.e.m of total tubular length per microscopic field (n=2). Scale bar=170 μm.
To investigate SPP induction of angiogenesis, 200 μL aliquots of thawed MATRIGEL were polymerized in 24-well tissue culture plates. HUVEC were trypsinized, resuspended in plain M199 medium containing soybean trypsin inhibitor (10 mg/mL, Sigma Chemical Co., St. Louis, Mo.). Following centrifugation (250 g; 5 minutes), cells were resuspended in plain M199 supplemented with 2% CFBS at a density of 1.5×10^5 cells/mL. 200 μL of cell suspension were seeded on these gels in the presence or absence of SPP (Biomol), for 12-18 hours. Cells were rinsed two times with phosphate buffered saline (PBS), and then fixed with 4% formaldehyde. Results were recorded photographically using a Zeiss Axiovert 100TV microscope equipped with a 5× objective. Five random fields of each well were photographed, and total tubular length was quantified by image analysis (Kinsella, J. et al., Experimental Cell Research 199: 56-62 (1992); Gamble J., et al., J. Cell Biol. 121: 931-943 (1993)).
Scale bar represents 52 microns. These quantitative data are the mean±standard deviation of duplicate determinations from a representative experiment which was repeated at least three times. SPP concentrations (in μM) are indicated in parentheses. For SPP +PTx, HUVEC were pretreated with PTx (200 ng/mL) for 2 hours, trypsinized, plated onto MATRIGEL, then stimulated with 500 nM SPP in the presence of PTx (20 ng/mL) for 16-18 hours. For SPP+C3, HUVEC were pretreated with C3 exoenzyme (10 μg/mL) for 48 hours, trypsinized, plated onto MATRIGEL, stimulated with 500 nM SPP together with the same concentration of C3 exotoxin. SPM, sphingomyelin (1 μM). For C1P, C8-ceramide-1-phosphate (1 μM). The maximal effects achieved by 1 μM SPP was indistinguishable from the positive control medium which contained FBS.
In these experiments, HUVEC were plated onto MATRIGEL in the presence of the same amount of corresponding antibodies without or with 500 nM SPP. 16 hours later, total length of HUVEC networks formed on MATRIGEL was quantified.

HUVEC [3] = assay: C2-Ceramide-induced apoptosis of HUVEC (DNA fragmentation); format: cell-based, human; details: SPP 10 to 500 nM, 1 μM C2-Ceramide, 12 hours
Description: The ability of SPP to protect endothelial cells from apoptosis was investigated. In these experiments, HUVEC were treated with 1 μM C2-Ceramide for 12 hours and apoptosis was measured in the following manner: HUVEC were plated onto coverslips and allowed to grow for 2 days. Cells were washed three times with medium M199, and treated with 1 μM C2-Ceramide (Biomol) for 12 hours in the presence or absence of SPP. Subsequently, cells were fixed with methanol at −20° C. for 5 minutes, air dried, and stained with Hoechst 33258 dye (0.5 μg/mL for 5 minutes; Sigma Chemical Co., St. Louis, Mo.). The apoptotic nuclei were identified with the aid of a Zeiss Axiovert 100TB fluorescence microscope. For quantification, HUVEC were labeled with ^3Hmethyl-thymidine (5 μCi/mL, NEN DuPont) for 24 hours. Following three washes with medium M199, cells were treated with C2-Ceramide as above. 12 hours later, cells were extracted with lysis buffer (5 mM tris, pH 7.4, 2 mM EDTA, 0.5% TX-100) at 4° C. for 20 minutes. After centrifugation (15,000 g, 20 minutes), the radioactivity present in the supernatant and sediment was measured by liquid scintillation counting. The percentage of DNA fragmentation was determined as ((supernatant cpm)/(supernatant cpm+sediment cpm))×100%.
SPP+PTx and SPP+PD98059 (10 μM), respectively, for 2 hours prior to the addition of C2-Ceramide (1 μM) and SPP (10 to 500 nM). Data are mean±standard deviation of triplicate determinations from a representative experiment which was repeated two times. […] A similar effect was also seen when growth factor withdrawal, and 15-deoxy Δ^12,14 prostaglandin J2 were used as apoptotic stimuli (data not shown). […] Therefore SPP induced endothelial cell survival requires the Gi/ERK signaling pathway.

[4] = system: bovine microvascular endothelial cells; assay: Morphogenesis of bovine microvascular endothelial cells; format: cell-based; details: SPP 100 nM to 1 μM, data not shown

SMILES: CCCCCCCCCCCCC/C=C/[C@@H](O)[C@@H](N)COP(=O)(O)O [SPP, sphingosine-1-phosphate]
- intracellular calcium response (HUVEC [1]): robust calcium response
- ERK activity (ERK-2): activated ERK activity in a dose-dependent manner
- HUVEC morphogenesis on MATRIGEL (tubular length) (HUVEC [2]): promoted HUVEC morphogenesis in a dose-dependent manner
- protection from apoptosis induced by C2-Ceramide (HUVEC [3]): significantly protected
- morphogenesis of bovine microvascular endothelial cells [4]: induced morphogenesis
